Ends that are not written are not given here.

The source of these data is patent US8283311B2, “Peptide-containing food intake regulator” (Maruha Nichiro Foods, Inc., priority 2008, dated 2012).

The subject of the experiment is Male SD rats. The experiment can be described thus: Measurement of food intake after intravenous administration. The following applies: test conditions not stated for this peptide. Type of experiment: in vivo. As to the method:
Male SD rats (Sprague-Dawley, body weight of 275±25 g) were housed and fed in 45×23×15-cm APECR cages, five rats per cage. The rats were acclimated for 1 week or more on a 12-h light/12-h dark cycle at a room temperature of 22 to 24° C. and a humidity of 60 to 80% with free access to food and water before the test. The rats used for the test were fasted for 12 hours overnight before initiation of the test. After fasting, the samples to be tested as the food intake regulator were dissolved in saline and the dissolved test samples were intravenously given (150 μg/body) to the rats, respectively, in the treatment group and, then, their food intakes were measured 1, 2, 4, and […] administration. In contrast, in the control group, saline was intravenously given and their food intakes were measured in the same way.

Regarding GRVYRPCWQV [SEQ ID NO: 34], the “food intake regulation activity” value is “no food intake regulation activity”.
